According to the NIST ThermoML archive (doi:10.1016/j.fluid.2016.09.021):

Conditions: Liquid, Vibrating tube method

CCCCCCCCCCCC [dodecane]
mass density [kg/m3]
Conditions	293 K	313 K	333 K	353 K	373 K	393 K	413 K	433 K	448 K	468 K
2100 kPa	752.3	737.7	722.8	708.1	693.2	678.1	662.8	646.8	634.6	617.8
3100 kPa	752.9	738.5	723.6	709	694.3	679.2	664.2	648.5	636.7	619.9
4100 kPa	753.6	739.2	724.5	710	695.3	680.4	665.6	650	638.2	622
5000 kPa	754.2	739.9	725.3	710.9	696.3	681.6	666.9	651.6	640	624.1
10100 kPa	757.5	743.4	729.4	715.6	701.5	687.5	673.7	659.5	648.5	634.1
20000 kPa	763.5	750.1	736.6	723.9	710.8	697.8	685.1	672	662.4	649.5
30000 kPa	769	756.3	743.4	731.3	718.7	706.6	694.9	682.8	674	661.8
40000 kPa	774.3	761.8	749.6	737.7	726	714.7	703.6	692.1	684	672.8
50000 kPa	779	767.1	755.3	744.1	733.1	722.2	711.4	700.6	692.9	682.6
60000 kPa	783.8	772.1	760.8	750.1	739.4	728.7	718.7	708.3	701	691
69900 kPa	788	777	766	755.6	745.2	735.1	725.4	715.6	708.3	698.9
79900 kPa	792.5	781.6	770.9	760.7	750.7	741.1	731.7	722.1	715.3	706.3
89900 kPa	796.7	786.1	775.7	765.7	756	746.8	737.3	728.3	721.9	712.9
99900 kPa	800.8	790.4	780.1	770.5	761	752.2	743.2	734.3	727.9	719.2
109900 kPa	804.8	794.6	784.6	775.1	765.9	757.2	748.5	739.8	733.5	725.1
119900 kPa	808.7	798.7	788.8	779.6	770.6	762	753.7	745.1	739	731
129900 kPa	812.4	802.7	793.2	784	775.1	766.8	758.5	750.3	744.2	736.3
134900 kPa	814.4	804.6	795.1	786	777.4	769	760.9	752.7	746.7	738.9
137400 kPa	815.2	805.4	796	787	778.5	770.2	762	753.9	747.9	740.2
